# Source: patent publication US11713335B2, “Aminocoumarin compounds and methods of their use” (President and Fellows of Harvard College, priority 2018, dated 2023)
# Like-named read-outs stand apart in the source and are kept apart here.
# How the values were obtained:
# [1] = tested on: WT E. coli; experiment: Minimal inhibitory concentration in wild-type E. coli; type: cell-based, Escherichia coli; settings: wild-type E. coli, 37° C., 16 hours, read-out: MIC (μM) in WT E. coli
# Description: General Procedure for Determination of Minimal Inhibitory Concentrations
# Overnight cultures (5 mL) of bacterial strains were grown in LB media or TSA media (for S. aureus) at 37° C. and with shaking at 220 rpm until saturation. The overnight culture was diluted serially 1:100 (50 μL in 5 mL sterile media) and then 1:100 (250 μL in 25 mL sterile media). The 25 mL of diluted culture was then dispensed to a sterile 96 well plate (Corning #3370). 198 μL of culture were dispensed into row A and 100 μL of this culture were dispensed into rows B-H. Aminocoumarin compound (DMSO stock) were added to the first row and then the row was mixed by pipetting. 100 μL of culture from row A were transferred to row B and the serial dilution continued until the final 100 μL from row H were discarded. The plate was incubated without shaking in a 37° C. for 16 hours and then read by visible light spectrophotometer (Molecular Devices) at 600 nm. The minimal inhibitory concentration (MIC) was determined as the lowest concentration of compound concentration that inhibited the growth of bacteria.
# [2] = tested on: S. aureus RN4220; experiment: Minimal inhibitory concentration, S. aureus RN4220; type: cell-based; settings: 16 hour minimal inhibitory concentration at 37° C., read-out: MIC (μM) S. aureus RN4220
# Method in brief: (§1)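 Broth microdilution, 2-fold series from DMSO stock; inoculum = saturated overnight culture (LB; TSA for S. aureus) diluted 1:100 then 1:100. 37 °C, 16 h, no shaking. OD600 read-out; MIC = lowest conc. inhibiting growth (µM).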
# [3] = tested on: S. aureus MW2; experiment: Minimal inhibitory concentration, S. aureus MW2; type: cell-based; settings: 16 hour minimal inhibitory concentration at 37° C., read-out: MIC (μM) S. aureus MW2 (MRSA)
# Method in brief: as §1
# [4] = tested on: E. cloacae 13047; experiment: Minimal inhibitory concentration, E. cloacae 13047; type: cell-based; settings: 16 hour minimal inhibitory concentration at 37° C., read-out: MIC (μM) E. cloacae 13047
# Method in brief: as §1
# [5] = tested on: A. baumannii 19606; experiment: Minimal inhibitory concentration, A. baumannii 19606; type: cell-based; settings: 16 hour minimal inhibitory concentration at 37° C., read-out: MIC (μM) A. baumannii 19606
# Method in brief: as §1
# [6] = tested on: K. pneumoniae 700721; experiment: Minimal inhibitory concentration, K. pneumoniae 700721; type: cell-based; settings: 16 hour minimal inhibitory concentration at 37° C., read-out: MIC (μM) K. pneumoniae 700721
# Method in brief: as §1
# [7] = tested on: E. coli MC4100; experiment: Minimal inhibitory concentration, E. coli MC4100; type: cell-based; settings: 16 hour minimal inhibitory concentration at 37° C., read-out: MIC (μM) E. coli MC4100 ara+
# Method in brief: as §1
# [8] = tested on: E. coli 25922; experiment: Minimal inhibitory concentration, E. coli 25922; type: cell-based; settings: 16 hour minimal inhibitory concentration at 37° C., read-out: MIC (μM) E. coli 25922
# Method in brief: as §1
# [9] = Staphylococcus aureus, RN4220, 16 h
# [10] = Staphylococcus aureus, MRSA, 16 h
# [11] = Acinetobacter baumannii, 19606, 16 h
SMILES,MIC ([1]; Escherichia coli),"MIC [2, 9]","MIC [3, 10]","MIC ([4]; Enterobacter cloacae, 13047)","MIC [5, 11]","MIC ([6]; Klebsiella pneumoniae, 700721)","MIC ([7]; Escherichia coli, MC4100, 16 h)","MIC ([8]; Escherichia coli, 25922, 16 h)",MIC [1],MIC [2],MIC [3],MIC [4],MIC [5],MIC [6],MIC [7],MIC [8]
CO[C@@H]1[C@@H](OC(N)=O)[C@@H](O)[C@H](Oc2ccc3c(O)c(NC(=O)c4cccc(-c5cccs5)c4)c(=O)oc3c2C)OC1(C)C [Compound 22],89 µM,10 µM,10 µM,> 100 µM,> 50 µM,> 100 µM,89 µM,164 µM,,,,,,,,
CO[C@@H]1[C@@H](OC(N)=O)[C@@H](O)[C@H](Oc2ccc3c(O)c(NC(=O)c4cccc(N5CCOCC5)c4)c(=O)oc3c2C)OC1(C)C [Compound 23],> 300 µM,82 µM,82 µM,> 100 µM,> 50 µM,> 100 µM,> 200 µM,> 200 µM,,,,,,,,
CO[C@@H]1[C@@H](OC(N)=O)[C@@H](O)[C@H](Oc2ccc3c(O)c(NC(=O)c4cccc(-c5ccc([N+](=O)[O-])cc5)c4)c(=O)oc3c2C)OC1(C)C [Compound 24],,,,,,,,,>300 µM,5 µM,5 µM,>100 µM,>50 µM,>100 µM,>200 µM,154 µM
CO[C@@H]1[C@@H](OC(N)=O)[C@@H](O)[C@H](Oc2ccc3c(O)c(NC(=O)c4cccc(-c5ccc(N(C)C)cc5)c4)c(=O)oc3c2C)OC1(C)C [Compound 25],> 300 µM,0.96 µM,0.96 µM,> 100 µM,19 µM,> 100 µM,> 200 µM,> 200 µM,,,,,,,,
CO[C@@H]1[C@@H](OC(N)=O)[C@@H](O)[C@H](Oc2ccc3c(O)c(NC(=O)c4cccc(S(F)(F)(F)(F)F)c4)c(=O)oc3c2C)OC1(C)C [Compound 26],> 300 µM,> 100 µM,> 100 µM,> 100 µM,> 50 µM,> 100 µM,> 200 µM,> 200 µM,,,,,,,,
CO[C@@H]1[C@@H](OC(N)=O)[C@@H](O)[C@H](Oc2ccc3c(O)c(NC(=O)/C=C/c4ccccc4)c(=O)oc3c2C)OC1(C)C [Compound 27],> 300 µM,45 µM,23 µM,> 100 µM,> 50 µM,> 100 µM,> 200 µM,> 200 µM,,,,,,,,
CO[C@@H]1[C@@H](OC(N)=O)[C@@H](O)[C@H](Oc2ccc3c(O)c(NC(=O)c4cccc(-c5ccc(F)cc5)c4)c(=O)oc3c2C)OC1(C)C [Compound 28],26 µM,5 µM,5 µM,161 µM,> 50 µM,80 µM,26 µM,40 µM,,,,,,,,
CO[C@@H]1[C@@H](OC(N)=O)[C@@H](O)[C@H](Oc2ccc3c(O)c(NC(=O)c4cccc(-c5cccnc5)c4)c(=O)oc3c2C)OC1(C)C [Compound 29],> 300 µM,83 µM,83 µM,> 100 µM,> 50 µM,> 100 µM,> 200 µM,> 200 µM,,,,,,,,
CO[C@@H]1[C@@H](OC(N)=O)[C@@H](O)[C@H](Oc2ccc3c(O)c(NC(=O)c4ccc(O)cc4)c(=O)oc3c2C)OC1(C)C [Compound 30],> 300 µM,46 µM,46 µM,> 100 µM,> 50 µM,> 100 µM,> 200 µM,> 200 µM,,,,,,,,
CO[C@@H]1[C@@H](OC(N)=O)[C@@H](O)[C@H](Oc2ccc3c(O)c(NC(=O)c4cccc(-c5ccccn5)c4)c(=O)oc3c2C)OC1(C)C [Compound 31],> 300 µM,41 µM,41 µM,> 100 µM,> 50 µM,> 100 µM,> 200 µM,> 200 µM,,,,,,,,
CO[C@@H]1[C@@H](OC(N)=O)[C@@H](O)[C@H](Oc2ccc3c(O)c(NC(=O)c4cccc(-c5ccncc5)c4)c(=O)oc3c2C)OC1(C)C [Compound 32],> 300 µM,83 µM,41 µM,> 100 µM,> 50 µM,> 100 µM,> 200 µM,> 200 µM,,,,,,,,
CO[C@@H]1[C@@H](OC(N)=O)[C@@H](O)[C@H](Oc2ccc3c(O)c(NC(=O)c4cccc(-c5ccc(Cl)cc5)c4)c(=O)oc3c2C)OC1(C)C [Compound 33],18 µM,1.96 µM,0.98 µM,> 100 µM,39 µM,> 100 µM,18 µM,20 µM,,,,,,,,
CO[C@@H]1[C@@H](OC(N)=O)[C@@H](O)[C@H](Oc2ccc3c(O)c(NC(=O)c4cccc(-c5ccc(I)cc5)c4)c(=O)oc3c2C)OC1(C)C [Compound 34],59 µM,0.43 µM,0.43 µM,> 100 µM,9 µM,> 100 µM,59 µM,68 µM,,,,,,,,
CO[C@@H]1[C@@H](OC(N)=O)[C@@H](O)[C@H](Oc2ccc3c(O)c(NC(=O)c4cccc(Oc5ccccc5)c4)c(=O)oc3c2C)OC1(C)C [Compound 35],8 µM,40 µM,20 µM,> 100 µM,> 50 µM,> 100 µM,8 µM,10 µM,,,,,,,,
CO[C@@H]1[C@@H](OC(N)=O)[C@@H](O)[C@H](Oc2ccc3c(O)c(NC(=O)c4cccc(-c5ccccc5F)c4)c(=O)oc3c2C)OC1(C)C [Compound 37],59 µM,10 µM,10 µM,> 100 µM,> 50 µM,> 100 µM,59 µM,80 µM,,,,,,,,
CO[C@@H]1[C@@H](OC(N)=O)[C@@H](O)[C@H](Oc2ccc3c(O)c(NC(=O)c4cccc(-c5cccc(F)c5)c4)c(=O)oc3c2C)OC1(C)C [Compound 38],26 µM,5 µM,10 µM,> 100 µM,> 50 µM,> 100 µM,26 µM,40 µM,,,,,,,,
CO[C@@H]1[C@@H](OC(N)=O)[C@@H](O)[C@H](Oc2ccc3c(O)c(NC(=O)c4cccc(-c5ccc6ccccc6c5)c4)c(=O)oc3c2C)OC1(C)C [Compound 39],,,,,,,,,>300 µM,0.19 µM,0.1 µM,>100 µM,5 µM,>100 µM,>200 µM,153 µM
CO[C@@H]1[C@@H](OC(N)=O)[C@@H](O)[C@H](Oc2ccc3c(O)c(NC(=O)c4ccccc4-c4ccccc4)c(=O)oc3c2C)OC1(C)C [Compound 40],> 300 µM,41 µM,41 µM,> 100 µM,> 50 µM,> 100 µM,> 100 µM,> 200 µM,,,,,,,,
CO[C@@H]1[C@@H](OC(N)=O)[C@@H](O)[C@H](Oc2ccc3c(O)c(NC(=O)c4ccc(C5CCCCC5)cc4)c(=O)oc3c2C)OC1(C)C [Compound 41],> 300 µM,20 µM,20 µM,> 100 µM,> 50 µM,> 100 µM,> 200 µM,> 200 µM,,,,,,,,
CO[C@@H]1[C@@H](OC(N)=O)[C@@H](O)[C@H](Oc2ccc3c(O)c(NC(=O)Cc4ccccc4)c(=O)oc3c2C)OC1(C)C [Compound 42],,,,,,,,,>300 µM,>100 µM,>100 µM,>100 µM,>50 µM,>100 µM,>200 µM,>200 µM
